# ChEMBL document CHEMBL5365431 (J Med Chem, 2023)
# Active and inactive are the calls of the source. The calls are words filed in the database; no cut-off is given here.
# Tests used:
# [1] = Clearance in Sprague-Dawley rat at 5 mg/kg, iv and measured upto 24 hrs; format: ADME, organism-based; conditions: in vivo
# [2] = Antitumor activity against human Olaparib-resistant MDA-MB-436 cells xenografted in BALB/c mouse assessed as tumor growth inhibition by measuring T/C ratio at 25 mg/kg,po QD for 27 days relative to control; format: functional; design: scale not given: the % may be the effect or the level left; conditions: time 27 day
# [3] = biological target: Poly [ADP-ribose] polymerase 1 (Homo sapiens, UniProt P09874); experiment: Inhibition of PARP1 (unknown origin) using histone as substrate by ELISA
# [4] = Antiproliferative activity against human Olaparib-resistant U-251 cells assessed as cell proliferation inhibition incubated for 7 days by SRB assay; format: functional, cell-based
# CAPAN-1 [5] = experiment: Antiproliferative activity against human CAPAN-1 cells assessed as cell proliferation inhibition incubated for 7 days by SRB assay; format: functional, cell-based
# [6] = Antiproliferative activity against human Olaparib-resistant CAPAN-1 cells assessed as cell proliferation inhibition incubated for 7 days by SRB assay; format: functional, cell-based
# CAPAN-1 [7] = experiment: Antiproliferative activity against human Talazoparib-resistant CAPAN-1 cells assessed as cell proliferation inhibition incubated for 7 days by SRB assay; format: functional, cell-based
# [8] = Stabilization of human His-tagged PARP1-DNA complex assessed as increase in fluorescence signal incubated for 60 mins using NAD+ as substrate by DSB fluorescence polarization assay
# [9] = biological target: Poly [ADP-ribose] polymerase 2 (Homo sapiens, UniProt Q9UGN5); experiment: Inhibition of PARP2 (unknown origin) using histone as substrate by ELISA
# [10] = biological target: Protein mono-ADP-ribosyltransferase PARP3 (Homo sapiens, UniProt Q9Y6F1); experiment: Inhibition of PARP3 (unknown origin) using biotinylated NAD+ as substrate by luminescence assay
# [11] = biological target: Protein mono-ADP-ribosyltransferase PARP4 (Homo sapiens, UniProt Q9UKK3); experiment: Inhibition of PARP4 (unknown origin) using biotinylated NAD+ as substrate by luminescence assay
# [12] = biological target: Poly [ADP-ribose] polymerase tankyrase-2 (Homo sapiens, UniProt Q9H2K2); experiment: Inhibition of PARP5B (unknown origin) using biotinylated NAD+ as substrate by luminescence assay
# [13] = biological target: Protein mono-ADP-ribosyltransferase PARP6 (Homo sapiens, UniProt Q2NL67); experiment: Inhibition of PARP6 (unknown origin) using biotinylated NAD+ as substrate by luminescence assay
# [14] = biological target: Protein mono-ADP-ribosyltransferase TIPARP (Homo sapiens, UniProt Q7Z3E1); experiment: Inhibition of PARP7 (unknown origin) using biotinylated NAD+ as substrate by luminescence assay
# [15] = biological target: Protein mono-ADP-ribosyltransferase PARP10 (Homo sapiens, UniProt Q53GL7); experiment: Inhibition of PARP10 (unknown origin) using biotinylated NAD+ as substrate by luminescence assay
# [16] = biological target: Protein mono-ADP-ribosyltransferase PARP11 (Homo sapiens, UniProt Q9NR21); experiment: Inhibition of PARP11 (unknown origin) using biotinylated NAD+ as substrate by luminescence assay
# [17] = biological target: Protein mono-ADP-ribosyltransferase PARP12 (Homo sapiens, UniProt Q9H0J9); experiment: Inhibition of PARP12 (unknown origin) using biotinylated NAD+ as substrate by luminescence assay
# [18] = biological target: Protein mono-ADP-ribosyltransferase PARP14 (Homo sapiens, UniProt Q460N5); experiment: Inhibition of PARP14 (unknown origin) using biotinylated NAD+ as substrate by luminescence assay
# [19] = biological target: Protein mono-ADP-ribosyltransferase PARP15 (Homo sapiens, UniProt Q460N3); experiment: Inhibition of PARP15 (unknown origin) using biotinylated NAD+ as substrate by luminescence assay
# HCC1937 = experiment: Antiproliferative activity against HR-deficient human HCC1937 cells harboring BRCA1 mutant assessed as cell proliferation inhibition incubated for 7 days by SRB assay; format: functional, cell-based
# HCT-15 = experiment: Antiproliferative activity against HR-deficient human HCT-15 cells harboring BRCA2 mutant assessed as cell proliferation inhibition incubated for 7 days by SRB assay; format: functional, cell-based
# MDA-MB-436 = experiment: Antiproliferative activity against HR-deficient human MDA-MB-436 cells harboring BRCA1 mutant assessed as cell proliferation inhibition incubated for 7 days by SRB assay; format: functional, cell-based
# [20] = Antiproliferative activity against HR-deficient human UWB1289 cells harboring BRCA1 mutant assessed as cell proliferation inhibition incubated for 7 days by SRB assay; format: functional, cell-based
# [21] = Antiproliferative activity against human UWB1289 cells harboring wild type BRCA1 assessed as cell proliferation inhibition incubated for 7 days by SRB assay; format: functional, cell-based
# [22] = Antiproliferative activity against Chinese hamster V-C8 cells harboring BRCA2 mutant assessed as cell proliferation inhibition incubated for 7 days by SRB assay; format: functional, cell-based; conditions: Cricetulus griseus
# V79 = experiment: Antiproliferative activity against Chinese hamster V79 cells harboring wild type BRCA2 assessed as cell proliferation inhibition incubated for 7 days by SRB assay; format: functional, cell-based; conditions: Cricetulus griseus
# IMR-90 = experiment: Antiproliferative activity against human IMR-90 cells assessed as cell proliferation inhibition incubated for 7 days by SRB assay; format: functional, cell-based
# WI-38 = experiment: Antiproliferative activity against human WI-38 cells assessed as cell proliferation inhibition incubated for 7 days by SRB assay; format: functional, cell-based
# [23] = Selectivity index, ratio of IC50 for antiproliferative activity against human UWB1289 cells harboring wild type BRCA1 to IC50 for antiproliferative activity against HR-deficient human UWB1289 cells harboring BRCA1 mutant; format: functional
# [24] = Selectivity index, ratio of IC50 for antiproliferative activity against Chinese hamster V79 cells harboring wild type BRCA2 to IC50 for antiproliferative activity against Chinese hamster V-C8 cells harboring BRCA2 mutant; format: functional, Cricetulus griseus
# [25] = Antiproliferative activity against human Olaparib-resistant MDA-MB-436 cells assessed as cell proliferation inhibition incubated for 7 days by CCK-8 assay; format: functional, cell-based
# [26] = Antiproliferative activity against human Talazoparib-resistant MDA-MB-436 cells assessed as cell proliferation inhibition incubated for 7 days by CCK-8 assay; format: functional, cell-based, Talazoparib-resistant MDA-MB-436 cell
# U-251 = experiment: Antiproliferative activity against human Talazoparib-resistant U-251 cells assessed as cell proliferation inhibition incubated for 7 days by SRB assay; format: functional, cell-based
# [27] = Selectivity index, ratio of IC50 for antiproliferative activity against human PARP1 knockout Talazoparib-resistant CAPAN-1 cells to IC50 for antiproliferative activity against human Talazoparib-resistant CAPAN-1 cells; format: functional
# U2OS [28] = experiment: Inhibition of homologous recombination repair activity in human U2OS cells expressing direct repeat-GFP reporter gene transfected with pCBA-ISceI plasmid at 1 uM incubated for 48 hrs by flow cytometry; format: functional
# U2OS [29] = experiment: Inhibition of homologous recombination repair activity in human PARP1 knockout U2OS cells expressing direct repeat-GFP reporter gene transfected with pCBA-ISceI plasmid at 1 uM incubated for 48 hrs by flow cytometry; format: functional
# [30] = Half life in Sprague-Dawley rat at 5 mg/kg, iv and measured upto 24 hrs; format: ADME, organism-based; conditions: in vivo
# [31] = Antitumor activity against human Olaparib-resistant MDA-MB-436 cells xenografted in BALB/c mouse assessed as tumor growth inhibition by measuring T/C ratio at 12.5 mg/kg,po QD for 27 days relative to control; format: functional; design: scale not given: the % may be the effect or the level left; conditions: time 27 day
# [32] = Toxicity in BALB/c mouse xenografted with human Olaparib-resistant MDA-MB-436 cells assessed as body weight at 12.5 to 25 mg/kg,po QD for 27 days; format: organism-based; conditions: in vivo, 648 h, dose 12.5-25 mg/kg, time 27 day
# CAPAN-1 [33] = experiment: Antitumor activity against human Talazoparib-resistant CAPAN-1 cells xenografted in BALB/c mouse assessed as tumor growth inhibition by measuring T/C ratio at 12.5 mg/kg,po QD for 21 days relative to control; format: functional; design: scale not given: the % may be the effect or the level left; conditions: time 21 day
# CAPAN-1 [34] = experiment: Antitumor activity against human Talazoparib-resistant CAPAN-1 cells xenografted in BALB/c mouse assessed as tumor growth inhibition by measuring T/C ratio at 25 mg/kg,po QD for 21 days relative to control; format: functional; design: scale not given: the % may be the effect or the level left; conditions: time 21 day
# [35] = biological target: Poly [ADP-ribose] polymerase tankyrase-1 (Homo sapiens, UniProt O95271)
# CAPAN-1 [36] = conditions: Homo sapiens, dose 10.0 nM, time 4.5 hrs
# CAPAN-1 [37] = conditions: Homo sapiens, dose 10.0 nM, time 4.5 hrs; remark: listed apart in the source
# Mus musculus [38] = organism: Mus musculus; conditions: BALB/c, dose 12.5-25 mg/kg, route po, time 21.0 day
# Mus musculus [39] = organism: Mus musculus; conditions: BALB/c, dose 12.5-25 mg/kg, route po, time 21.0 day; remark: listed apart in the source
# Mus musculus [40] = organism: Mus musculus; conditions: BALB/c, dose 12.5-25 mg/kg, route po, time 21.0 day; remark: listed apart in the source
# Chain of Protein mono-ADP-ribosyltransferase PARP12 (Q9H0J9 whole entry): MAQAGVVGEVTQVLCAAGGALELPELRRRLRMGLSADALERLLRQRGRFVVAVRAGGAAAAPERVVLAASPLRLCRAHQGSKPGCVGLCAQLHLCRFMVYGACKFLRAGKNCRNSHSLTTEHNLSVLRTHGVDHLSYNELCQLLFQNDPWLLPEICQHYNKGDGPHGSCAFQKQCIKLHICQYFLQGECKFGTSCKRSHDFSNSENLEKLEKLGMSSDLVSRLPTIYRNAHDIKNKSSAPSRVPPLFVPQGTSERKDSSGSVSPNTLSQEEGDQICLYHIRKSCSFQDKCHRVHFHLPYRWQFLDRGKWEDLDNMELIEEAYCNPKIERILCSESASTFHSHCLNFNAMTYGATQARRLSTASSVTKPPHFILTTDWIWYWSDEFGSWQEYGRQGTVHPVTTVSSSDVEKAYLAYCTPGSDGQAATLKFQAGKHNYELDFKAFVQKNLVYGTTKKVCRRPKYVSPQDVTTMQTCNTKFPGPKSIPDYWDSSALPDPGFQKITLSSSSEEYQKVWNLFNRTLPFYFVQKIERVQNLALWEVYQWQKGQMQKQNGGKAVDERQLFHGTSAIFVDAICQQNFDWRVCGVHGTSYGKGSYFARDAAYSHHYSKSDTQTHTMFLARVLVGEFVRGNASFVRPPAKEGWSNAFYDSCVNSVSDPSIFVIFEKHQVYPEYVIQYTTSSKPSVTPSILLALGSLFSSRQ
# Chain of Poly [ADP-ribose] polymerase 2 (Q9UGN5 whole entry): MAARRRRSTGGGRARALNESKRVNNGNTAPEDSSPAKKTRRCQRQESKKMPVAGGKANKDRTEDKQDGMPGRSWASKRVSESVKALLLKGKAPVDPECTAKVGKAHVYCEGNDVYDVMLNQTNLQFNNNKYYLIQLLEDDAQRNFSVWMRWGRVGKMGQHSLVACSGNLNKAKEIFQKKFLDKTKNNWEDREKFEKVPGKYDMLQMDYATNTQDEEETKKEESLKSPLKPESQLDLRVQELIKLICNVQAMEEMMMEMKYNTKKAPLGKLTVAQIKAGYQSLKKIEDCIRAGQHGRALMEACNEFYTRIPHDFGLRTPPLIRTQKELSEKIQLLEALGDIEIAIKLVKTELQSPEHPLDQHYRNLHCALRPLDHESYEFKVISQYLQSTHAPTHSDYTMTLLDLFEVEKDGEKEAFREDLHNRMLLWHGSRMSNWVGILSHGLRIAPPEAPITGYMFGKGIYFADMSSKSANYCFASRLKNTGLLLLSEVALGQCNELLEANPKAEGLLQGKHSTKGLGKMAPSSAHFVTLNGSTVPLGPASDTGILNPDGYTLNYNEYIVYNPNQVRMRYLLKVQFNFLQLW
# Chain of Protein mono-ADP-ribosyltransferase PARP15 (Q460N3 whole entry): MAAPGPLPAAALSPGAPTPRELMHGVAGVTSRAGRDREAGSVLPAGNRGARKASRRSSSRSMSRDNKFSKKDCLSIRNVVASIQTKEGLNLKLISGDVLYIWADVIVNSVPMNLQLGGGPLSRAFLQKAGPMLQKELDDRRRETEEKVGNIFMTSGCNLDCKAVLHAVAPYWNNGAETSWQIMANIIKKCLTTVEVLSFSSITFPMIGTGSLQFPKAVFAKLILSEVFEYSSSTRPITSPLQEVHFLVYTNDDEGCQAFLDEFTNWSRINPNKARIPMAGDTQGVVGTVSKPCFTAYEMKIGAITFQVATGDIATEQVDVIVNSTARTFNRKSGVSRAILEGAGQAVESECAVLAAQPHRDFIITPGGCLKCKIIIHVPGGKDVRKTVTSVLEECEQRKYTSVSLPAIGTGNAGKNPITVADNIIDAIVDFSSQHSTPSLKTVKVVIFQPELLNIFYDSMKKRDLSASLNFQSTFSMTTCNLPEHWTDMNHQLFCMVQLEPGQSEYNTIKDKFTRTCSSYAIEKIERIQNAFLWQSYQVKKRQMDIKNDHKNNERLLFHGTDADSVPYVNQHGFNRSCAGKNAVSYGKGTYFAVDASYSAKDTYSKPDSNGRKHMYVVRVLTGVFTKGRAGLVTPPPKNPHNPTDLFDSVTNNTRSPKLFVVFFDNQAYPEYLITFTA
# Chain of Poly [ADP-ribose] polymerase 1 (P09874 whole entry): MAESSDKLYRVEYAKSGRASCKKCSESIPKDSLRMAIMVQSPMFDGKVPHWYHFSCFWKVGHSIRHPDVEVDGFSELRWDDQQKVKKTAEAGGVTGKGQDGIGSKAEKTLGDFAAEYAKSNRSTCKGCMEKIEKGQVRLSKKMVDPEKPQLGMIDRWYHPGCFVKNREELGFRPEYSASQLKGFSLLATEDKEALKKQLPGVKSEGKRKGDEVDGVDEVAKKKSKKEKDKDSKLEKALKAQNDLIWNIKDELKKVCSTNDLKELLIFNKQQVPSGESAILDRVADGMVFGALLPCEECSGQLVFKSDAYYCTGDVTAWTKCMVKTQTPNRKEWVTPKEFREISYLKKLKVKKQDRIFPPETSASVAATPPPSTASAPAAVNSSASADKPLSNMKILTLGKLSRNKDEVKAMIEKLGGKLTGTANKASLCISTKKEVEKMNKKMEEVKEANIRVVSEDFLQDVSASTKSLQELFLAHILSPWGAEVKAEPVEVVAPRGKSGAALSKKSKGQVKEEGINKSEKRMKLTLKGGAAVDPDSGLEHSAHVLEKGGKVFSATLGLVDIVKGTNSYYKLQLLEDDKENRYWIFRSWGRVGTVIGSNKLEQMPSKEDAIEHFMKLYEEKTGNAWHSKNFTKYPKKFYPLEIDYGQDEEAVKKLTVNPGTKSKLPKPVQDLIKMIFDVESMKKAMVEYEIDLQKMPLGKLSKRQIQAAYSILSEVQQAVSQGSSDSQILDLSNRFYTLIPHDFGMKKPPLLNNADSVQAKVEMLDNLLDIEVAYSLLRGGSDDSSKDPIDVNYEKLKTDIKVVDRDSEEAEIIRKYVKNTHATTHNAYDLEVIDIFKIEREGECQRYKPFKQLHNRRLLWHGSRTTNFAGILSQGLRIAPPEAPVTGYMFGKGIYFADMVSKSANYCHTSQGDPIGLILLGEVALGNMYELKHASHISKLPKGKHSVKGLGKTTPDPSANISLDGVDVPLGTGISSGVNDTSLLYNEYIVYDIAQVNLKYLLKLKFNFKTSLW
# Chain of Protein mono-ADP-ribosyltransferase PARP10 (Q53GL7 whole entry): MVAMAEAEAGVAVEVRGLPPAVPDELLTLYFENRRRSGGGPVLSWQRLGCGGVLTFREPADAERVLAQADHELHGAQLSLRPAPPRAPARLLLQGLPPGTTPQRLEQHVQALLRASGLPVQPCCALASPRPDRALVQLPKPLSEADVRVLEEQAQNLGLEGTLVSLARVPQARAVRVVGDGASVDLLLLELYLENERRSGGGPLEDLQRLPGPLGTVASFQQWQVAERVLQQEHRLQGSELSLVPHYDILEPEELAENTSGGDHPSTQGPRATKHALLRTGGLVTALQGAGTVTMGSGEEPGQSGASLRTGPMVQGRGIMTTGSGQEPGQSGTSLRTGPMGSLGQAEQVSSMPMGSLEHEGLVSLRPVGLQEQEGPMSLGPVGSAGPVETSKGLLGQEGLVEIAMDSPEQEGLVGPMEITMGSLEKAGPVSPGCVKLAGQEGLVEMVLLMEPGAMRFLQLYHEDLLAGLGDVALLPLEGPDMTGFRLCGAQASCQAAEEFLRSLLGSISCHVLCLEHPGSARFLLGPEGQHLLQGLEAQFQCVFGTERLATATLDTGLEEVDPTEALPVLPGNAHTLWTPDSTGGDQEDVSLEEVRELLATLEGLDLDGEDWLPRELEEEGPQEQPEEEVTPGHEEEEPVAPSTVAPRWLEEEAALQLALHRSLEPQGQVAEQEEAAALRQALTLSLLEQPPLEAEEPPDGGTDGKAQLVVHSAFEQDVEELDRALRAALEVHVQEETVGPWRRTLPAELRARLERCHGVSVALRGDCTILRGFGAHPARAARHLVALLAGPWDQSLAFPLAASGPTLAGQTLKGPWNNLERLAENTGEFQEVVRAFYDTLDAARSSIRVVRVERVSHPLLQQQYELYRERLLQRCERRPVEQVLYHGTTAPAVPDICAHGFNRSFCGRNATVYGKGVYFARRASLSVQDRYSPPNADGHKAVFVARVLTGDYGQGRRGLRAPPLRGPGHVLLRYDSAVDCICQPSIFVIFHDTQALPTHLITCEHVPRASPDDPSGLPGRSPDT
# Chain of Protein mono-ADP-ribosyltransferase TIPARP (Q7Z3E1 whole entry): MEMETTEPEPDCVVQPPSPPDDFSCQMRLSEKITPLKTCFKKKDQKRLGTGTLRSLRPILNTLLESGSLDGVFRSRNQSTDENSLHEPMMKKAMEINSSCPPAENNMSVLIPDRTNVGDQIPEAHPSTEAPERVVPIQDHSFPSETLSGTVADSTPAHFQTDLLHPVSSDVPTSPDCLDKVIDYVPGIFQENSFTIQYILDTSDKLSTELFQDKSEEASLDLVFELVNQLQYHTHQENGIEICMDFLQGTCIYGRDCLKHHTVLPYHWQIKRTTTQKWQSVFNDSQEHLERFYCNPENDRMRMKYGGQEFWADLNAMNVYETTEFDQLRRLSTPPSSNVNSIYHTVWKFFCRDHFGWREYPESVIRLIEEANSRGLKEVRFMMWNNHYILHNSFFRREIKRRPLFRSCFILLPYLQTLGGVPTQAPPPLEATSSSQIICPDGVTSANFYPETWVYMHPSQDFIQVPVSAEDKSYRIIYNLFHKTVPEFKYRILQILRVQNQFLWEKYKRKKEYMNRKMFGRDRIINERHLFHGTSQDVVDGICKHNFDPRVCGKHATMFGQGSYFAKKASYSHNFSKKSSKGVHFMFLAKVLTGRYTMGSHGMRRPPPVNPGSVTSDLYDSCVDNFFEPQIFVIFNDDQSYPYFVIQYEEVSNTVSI
# Chain of Protein mono-ADP-ribosyltransferase PARP11 (Q9NR21 whole entry): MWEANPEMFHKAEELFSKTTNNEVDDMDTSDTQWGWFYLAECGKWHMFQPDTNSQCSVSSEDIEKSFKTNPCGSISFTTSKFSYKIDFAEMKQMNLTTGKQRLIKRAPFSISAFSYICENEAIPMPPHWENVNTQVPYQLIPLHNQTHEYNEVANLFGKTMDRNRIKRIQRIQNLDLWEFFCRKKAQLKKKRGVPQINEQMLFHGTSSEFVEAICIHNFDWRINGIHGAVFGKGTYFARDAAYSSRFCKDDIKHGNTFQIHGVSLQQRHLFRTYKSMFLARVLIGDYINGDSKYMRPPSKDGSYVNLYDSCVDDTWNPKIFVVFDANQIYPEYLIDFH
compound,measurement,setting,value
O=C(c1cc(Cc2n[nH]c(=O)c3ccccc23)ccc1F)N1CCn2c(nnc2-c2ccc(Br)o2)C1,clearance,[1],24.5 mL/min/kg
same,Activity,[2],15.29%
same,IC50,[3],< 0.001 nM
same,IC50,[4],1.97 nM
same,IC50,CAPAN-1 [5],0.1 nM
same,IC50,[6],0.89 nM
same,IC50,CAPAN-1 [7],1.13 nM
same,EC50,[8],5.55 nM
same,IC50,[9],0.001 nM
same,IC50,[10],1.1 nM
same,IC50,[11],1 nM
same,IC50,[12],12.4 nM
same,IC50,[13],9.5 nM
same,IC50,[14],7.3 nM
same,IC50,[15],10.8 nM
same,IC50,[16],2170 nM
same,IC50,[17],14.1 nM
same,IC50,[18],35900 nM
same,IC50,[19],51600 nM
same,IC50,HCC1937,4.54 nM
same,IC50,HCT-15,44.2 nM
same,IC50,MDA-MB-436,0.52 nM
same,IC50,[20],0.02 nM
same,IC50,[21],0.34 nM
same,IC50,[22],1.19 nM
same,IC50,V79,29.3 nM
same,IC50,IMR-90,1240 nM
same,IC50,WI-38,530 nM
same,Ratio IC50,[23],17
same,Ratio IC50,[24],25
same,IC50,[25],1.97 nM
same,IC50,[26],1.97 nM
same,IC50,U-251,1.97 nM
same,Ratio IC50,[27],19
same,inhibition (INH),U2OS [28],95%
same,inhibition (INH),U2OS [29],50%
same,half-life,[30],3.25 h
same,Activity,[31],36.74%
same,Activity,[32],Non-Toxic
same,Activity,CAPAN-1 [33],48.92%
same,Activity,CAPAN-1 [34],13.87%
same,IC50,[35],3.8 nM
same,inhibition,CAPAN-1 [36],Active
same,inhibition,CAPAN-1 [37],Active
same,inhibition,Mus musculus [38],Active
same,inhibition,Mus musculus [39],Active
same,inhibition,Mus musculus [40],Active
